Data published in publication PMC8450399, “Expression Profiles and Functional Characterization of Chemosensory Protein 15 (HhalCSP15) in the Brown Marmorated Stink Bug Halyomorpha halys” (Frontiers in Physiology, 2021).

Tests used:
[1] = target: HhalCSP15; test: Fluorescence competitive binding assay with 1-NPN as fluorescent probe; design: species or system Halyomorpha halys; settings: for Ki: Ki=IC50/(1+[1-NPN]/K1-NPN), HhalCSP15 and 1-NPN 2 μM, pH 7.4, triplicate, read-out: Ki, dissociation constant; for binding ability with HhalCSP15 (in words): fluorescence binding experiments
Protocol: The binding abilities of HhalCSP15 to 43 volatiles were measured on an F-380 fluorescence spectrophotometer (Tianjin, China) using 10-nm slits and a 1-cm light path. As the fluorescent probe, N-phenyl-1-naphthylamine (1-NPN) was excited at the wavelength of 337nm, and emission spectra were recorded between 390 and 530nm. To measure the affinity of 1-NPN to the HhalCSP15 protein, a 2-μM solution of purified protein in 50-mM Tris-HCl at pH 7.4 was titrated with aliquots of 1-mM 1-NPN dissolved in methanol to final concentrations ranging from 2 to 16μM.
[…] Dissociation constants of the competitors were calculated by the equation Ki=IC50/(1+[1-NPN]/K1-NPN), where IC50 is the concentration of ligands halving the initial fluorescence value of 1-NPN, [1-NPN] is the free concentration of 1-NPN, and K1-NPN is the dissociation constant of the HhalCSP15/1-NPN complex.

[2] = test system: Halyomorpha halys antennae; test: Electroantennography (EAG) recordings; settings: 10 μl of 100 μg/μl in paraffin oil; for EAG response of antennae (in words; comparison among nymphs, females, males): third instar nymphs and 1- to 3-day old male and female adults, solvent-corrected
Protocol: The antennal responses of H. halys to the three ligands of […]15 were evaluated using conventional EAG methods as described in previous study ([Wang et al., 2020]). Briefly, antennae of the third instar nymphs and 1- to 3-day old male and female adults were dissected, and a few terminal segments at the distal end were excised. The treated antennae were attached to electrode holders with electrode gel. Ten microliters of tested chemicals (100μg/μl, diluted in paraffin oil) were applied to filter paper strips (1.0cm×2.0cm) and inserted into a glass Pasteur pipette as a cartridge. The test cartridge was connected to a stimulus controller (CS-55; Syntech, Kirchzarten, Germany) that generated a 0.5s stimulus at 30s intervals, with a constant flow of 10ml/s. The signals generated by the antennae were recorded using EAG Pro (Syntech). A blank stimulus (solvent control) was presented before testing the compound. For each compound, EAG responses were recorded from eight antennae of different insects. The EAG responses elicited by the test odor stimuli were corrected by subtracting EAG response from the solvent control. The corrected EAG data were statistically analyzed using ANOVA followed by Tukey's HSD test.

| Ki [1] | binding ability with HhalCSP15 (in words) [1] | SMILES | EAG response of antennae (in words; comparison among nymphs, females, males) [2] | further results |
| --- | --- | --- | --- | --- |
| 9.6 ± 0.4 µM | identified as a binding ligand | CCC\C=C/C=C/C=C/C(=O)OC [Methyl (2E,4E,6Z)-decatrienoate] | significantly greater EAG responses in adults compared with nymphs |  |
| 11.9 ± 0.6 µM | strong binding abilities | CC(=O)/C=C/C1=C(C)CCCC1(C)C [β-Ionone] | elicit an EAG response in both nymph and adult H. halys antennae | EAG response of antennae (in words; comparison among nymphs, females, males) ([2]; listed as β-ionone): significantly greater responses in females compared with males and nymphs |

Continued, compound first:

| SMILES | Ki [1] | binding ability with HhalCSP15 (in words) [1] | EAG response of antennae (in words; comparison among nymphs, females, males) [2] | further results |
| --- | --- | --- | --- | --- |
| c1ccc(Nc2cccc3ccccc23)cc1 [1-NPN, N-phenyl-1-naphthylamine, reference compound] |  |  |  | Kd ([1]; 2 μM protein in 50 mM Tris-HCl pH 7.4 titrated with 1-NPN 2 to 16 μM, read-out: dissociation constant of the HhalCSP15/1-NPN complex): 9.36 µM |
| CCCCCCCCCCCCC [Tridecane] |  | could not bind |  |  |
| CC/C=C\CCOC(=O)c1ccccc1 [cis-3-Hexen-1-yl benzoate] | 10.5 ± 0.8 µM | strong binding abilities |  | EAG response compared among ligands (in words) ([2]; nymphs and adults): highest EAG response among all ligands in both nymphs and adults; EAG response of antennae (in words; comparison among nymphs, females, males) ([2]; listed as Cis-3-hexen-1-yl benzoate): significantly greater responses in females compared with males and nymphs; EAG response of antennae (in words; comparison among nymphs, females, males) ([2]; listed as cis-3-hexen-1-yl benzoate): elicit an EAG response in both nymph and adult H. halys antennae |
| CCCCCCC/C=C/C=O [trans-2-Decenal] |  | could not bind |  |  |
